Patent publication US12371464B2, “Polypeptides and uses thereof” (MEDIMMUNE LIMITED, priority 2020, dated 2025)
Numbered stars: 1 amine (or outer) side, 2 acyl side, 3 side chain; on linkers, the order of the positions; unused ones are H or OH. Bridge positions count the residues as written; N and C are the ends. Square brackets hold non-standard residues; d marks the D form. Side chains are listed from the residue outwards. Peptide text beside a SMILES is read from it. * marks the point of attachment. C20 diacid = O=C(O)CCCCCCCCCCCCCCCCCCC(=O)*; C18 diacid = O=C(O)CCCCCCCCCCCCCCCCC(=O)*; γGlu = O=C(O)[C@H](CCC(=O)[*:2])N[*:1]; αMeF = C[C@](N)(Cc1ccccc1)C(=O)O; Dab = NCC[C@H](N)C(=O)O; AEEA = NCCOCCOCC(=O)O

Assay: Thioflavin T fibrillation assay
Format: physicochemical
Settings: for Time taken to detect increase in fluorescence intensity: 1 mg/mL in 25 mM sodium acetate buffer pH 4.0, 37° C., 6 days, orbital shaking, >144 h = no increase; for fibril-forming tendency on conjugating pramlintide to a lipid: as seen in Table 7
Source text: Peptide aggregation that form fibrils is an indication of physical instability. Fibril formation in solution poses a significant risk for the stability of injectable peptide drug products. Thioflavin T (ThT) fibrillation assay is a useful tool to assess the aggregation kinetics of a peptide or protein under accelerated and stressed conditions that can be used to forecast the long-term viability of a compound in solution. ThT can selectively bind amyloid fibrils and the resultant complex emits strong fluorescence signal at 482 nm when excited at 450 nm (Anal Biochem. 1989 March; 177 (2): 244-9). Monitoring of the change in fluorescence signal is an established method to study the fibril forming potential of peptides and proteins. ThT (purchased from Sigma Aldrich) stock solution is prepared by dissolving the ThT powder in Milli-Q water and filtered to obtain a 0.25 mM solution. The concentration of the solution is measured at 412 nm using an extinction coefficient of 36 mM-1 cm-1. Test peptides were dissolved at 1 mg/mL in 25 mM sodium acetate buffer pH 4.0. 100 μL aliquot of peptide solution and 5 μL aliquot of ThT solution were placed in a clear bottom black fluorescence 96-well plate. 5 replicates of each test samples were placed in the same row of the plate. Buffer was placed in control wells for baseline correction. All empty wells were filled with water to prevent evaporation. The plate was sealed with aluminium seal and placed in fluorescence plate reader and incubated for 6 days at 37° C. with intermittent orbital shaking at 500 to 750 rpm. The fluorescence intensity was measured every 30 min using excitation at 444 nm and emission at 480 nm. The fibril forming potential of the test peptides was determined by measuring the average time taken to detect an increase in baseline corrected fluorescence intensity.

| Time taken to detect increase in fluorescence intensity [h] | fibril-forming tendency on conjugating pramlintide to a lipid | Compound |
| --- | --- | --- |
| <5 | increases the fibril-forming tendency | CC[C@H](C)[C@H](NC(=O)[C@@H]1CCCN1C(=O)CNC(=O)[C@H](Cc1ccccc1)NC(=O)[C@H](CC(N)=O)NC(=O)[C@H](CC(N)=O)NC(=O)[C@H](CO)NC(=O)[C@H](CO)NC(=O)[C@H](Cc1c[nH]cn1)NC(=O)[C@@H](NC(=O)[C@H](CC(C)C)NC(=O)[C@H](Cc1ccccc1)NC(=O)[C@H](CC(N)=O)NC(=O)[C@H](C)NC(=O)[C@H](CC(C)C)NC(=O)[C@H](CCCNC(=N)N)NC(=O)[C@H](CCC(N)=O)NC(=O)[C@@H](NC(=O)[C@H](C)NC(=O)[C@@H]1CSSC[C@H](NC(=O)[C@H](CCCCN)NC(=O)COCCOCCNC(=O)COCCOCCNC(=O)CC[C@H](NC(=O)CCCCCCCCCCCCCCCCCCC(=O)O)C(=O)O)C(=O)N[C@@H](CC(N)=O)C(=O)N[C@@H]([C@@H](C)O)C(=O)N[C@@H](C)C(=O)N[C@@H]([C@@H](C)O)C(=O)N1)[C@@H](C)O)C(C)C)C(=O)N[C@@H](CC(C)C)C(=O)N1CCC[C@H]1C(=O)N1CCC[C@H]1C(=O)N[C@H](C(=O)N[C@@H](CC(N)=O)C(=O)N[C@H](C(=O)NCC(=O)N[C@@H](CO)C(=O)N[C@@H](CC(N)=O)C(=O)N[C@H](C(=O)N[C@@H](Cc1ccc(O)cc1)C(N)=O)[C@@H](C)O)C(C)C)[C@@H](C)O [Peptide 113] ({C20 diacid-γGlu-AEEA-AEEA}-KCNTATCATQRLANFLVHSSNNFGPILPPTNVGSNTY-NH2; disulfide 2-7) |
| 45 | – | CC[C@H](C)[C@H](NC(=O)[C@@H]1CCCN1C(=O)CNC(=O)[C@H](Cc1ccccc1)NC(=O)[C@H](CC(N)=O)NC(=O)[C@H](CCN)NC(=O)[C@H](CO)NC(=O)[C@H](CO)NC(=O)[C@H](Cc1c[nH]cn1)NC(=O)[C@@H](NC(=O)[C@H](CC(C)C)NC(=O)[C@H](Cc1ccccc1)NC(=O)[C@H](CC(N)=O)NC(=O)[C@H](C)NC(=O)[C@H](CC(C)C)NC(=O)[C@H](CCCNC(=N)N)NC(=O)[C@H](CCC(N)=O)NC(=O)[C@@H](NC(=O)[C@H](C)NC(=O)[C@@H]1CSSC[C@H](NC(=O)[C@H](CCCCN)NC(=O)[C@@H](N)CCCCNC(=O)CC[C@H](NC(=O)CCCCCCCCCCCCCCCCC(=O)O)C(=O)O)C(=O)N[C@@H](CC(N)=O)C(=O)N[C@@H]([C@@H](C)O)C(=O)N[C@@H](C)C(=O)N[C@@H]([C@@H](C)O)C(=O)N1)[C@@H](C)O)C(C)C)C(=O)N[C@@H](CC(C)C)C(=O)N1CCC[C@H]1C(=O)N1CCC[C@H]1C(=O)N[C@H](C(=O)N[C@@H](CCC(=O)O)C(=O)N[C@H](C(=O)NCC(=O)N[C@@H](CO)C(=O)N[C@@H](CC(N)=O)C(=O)N[C@H](C(=O)N[C@@H](Cc1ccc(O)cc1)C(N)=O)[C@@H](C)O)C(C)C)[C@@H](C)O [Peptide 28, K(γE-C18diacid)K[CNTATC]ATQRLANFLVHSS(Dab)NFGPILPPTEVGSNTY-amide] (H-K([γGlu-C18 diacid])KCNTATCATQRLANFLVHSS[Dab]NFGPILPPTEVGSNTY-NH2; disulfide 3-8; N-terminus assumed) |
| <5 | increases the fibril-forming tendency | CC[C@H](C)[C@H](NC(=O)[C@@H]1CCCN1C(=O)CNC(=O)[C@H](Cc1ccccc1)NC(=O)[C@H](CC(N)=O)NC(=O)[C@H](CC(N)=O)NC(=O)[C@H](CO)NC(=O)[C@H](CO)NC(=O)[C@H](Cc1c[nH]cn1)NC(=O)[C@@H](NC(=O)[C@H](CC(C)C)NC(=O)[C@H](Cc1ccccc1)NC(=O)[C@H](CC(N)=O)NC(=O)[C@H](C)NC(=O)[C@H](CC(C)C)NC(=O)[C@H](CCCNC(=N)N)NC(=O)[C@H](CCC(N)=O)NC(=O)[C@@H](NC(=O)[C@H](C)NC(=O)[C@@H]1CSSC[C@H](NC(=O)[C@H](CCCCN)NC(=O)CC[C@H](NC(=O)CCCCCCCCCCCCCCCCC(=O)O)C(=O)O)C(=O)N[C@@H](CC(N)=O)C(=O)N[C@@H]([C@@H](C)O)C(=O)N[C@@H](C)C(=O)N[C@@H]([C@@H](C)O)C(=O)N1)[C@@H](C)O)C(C)C)C(=O)N[C@@H](CC(C)C)C(=O)N1CCC[C@H]1C(=O)N1CCC[C@H]1C(=O)N[C@H](C(=O)N[C@@H](CC(N)=O)C(=O)N[C@H](C(=O)NCC(=O)N[C@@H](CO)C(=O)N[C@@H](CC(N)=O)C(=O)N[C@H](C(=O)N[C@@H](Cc1ccc(O)cc1)C(N)=O)[C@@H](C)O)C(C)C)[C@@H](C)O [Peptide 3] ({C18 diacid-γGlu}-KCNTATCATQRLANFLVHSSNNFGPILPPTNVGSNTY-NH2; disulfide 2-7) |
| >144 | – | CC[C@H](C)[C@H](NC(=O)[C@@H]1CCCN1C(=O)CNC(=O)[C@](C)(Cc1ccccc1)NC(=O)[C@H](CC(N)=O)NC(=O)[C@H](CC(N)=O)NC(=O)[C@H](CO)NC(=O)[C@H](CO)NC(=O)[C@H](Cc1c[nH]cn1)NC(=O)[C@H](CCCNC(=N)N)NC(=O)[C@H](CC(C)C)NC(=O)[C@H](Cc1ccccc1)NC(=O)[C@H](CC(N)=O)NC(=O)[C@H](C)NC(=O)[C@H](CC(C)C)NC(=O)[C@H](CCCNC(=N)N)NC(=O)[C@H](CCC(N)=O)NC(=O)[C@@H](NC(=O)[C@H](C)NC(=O)[C@@H]1CSSC[C@H](NC(=O)[C@@H](N)CCCCNC(=O)COCCOCCNC(=O)COCCOCCNC(=O)CC[C@H](NC(=O)CCCCCCCCCCCCCCCCC(=O)O)C(=O)O)C(=O)N[C@@H](CC(N)=O)C(=O)N[C@@H]([C@@H](C)O)C(=O)N[C@@H](C)C(=O)N[C@@H]([C@@H](C)O)C(=O)N1)[C@@H](C)O)C(=O)N[C@@H](CC(C)C)C(=O)N1CCC[C@H]1C(=O)N1CCC[C@H]1C(=O)N[C@H](C(=O)N[C@@H](CCC(=O)O)C(=O)N[C@H](C(=O)NCC(=O)N[C@@H](CO)C(=O)N[C@@H](CC(N)=O)C(=O)N[C@H](C(=O)N[C@@H](Cc1ccc(O)cc1)C(N)=O)[C@@H](C)O)C(C)C)[C@@H](C)O [Peptide 17, K(O2Oc-O2Oc-γE-C18diacid)[CNTATC]ATQRLANFLRHSSNN(αMePhe)GPILPPTEVGSNTY-amide] (H-K([AEEA-AEEA-γGlu-C18 diacid])CNTATCATQRLANFLRHSSNN[αMeF]GPILPPTEVGSNTY-NH2; disulfide 2-7; N-terminus assumed) |
| >144 | – | CC[C@H](C)[C@H](NC(=O)[C@@H]1CCCN1C(=O)CNC(=O)[C@](C)(Cc1ccccc1)NC(=O)[C@H](CC(N)=O)NC(=O)[C@H](CC(N)=O)NC(=O)[C@H](CO)NC(=O)[C@H](CO)NC(=O)[C@H](Cc1c[nH]cn1)NC(=O)[C@@H](NC(=O)[C@H](CC(C)C)NC(=O)[C@H](Cc1ccccc1)NC(=O)[C@H](CC(N)=O)NC(=O)[C@H](C)NC(=O)[C@H](CC(C)C)NC(=O)[C@H](CCCNC(=N)N)NC(=O)[C@H](CCC(N)=O)NC(=O)[C@@H](NC(=O)[C@H](C)NC(=O)[C@@H]1CSSC[C@H](NC(=O)[C@@H](N)CCCCNC(=O)CC[C@H](NC(=O)CCCCCCCCCCCCCCCCC(=O)O)C(=O)O)C(=O)N[C@@H](CC(N)=O)C(=O)N[C@@H]([C@@H](C)O)C(=O)N[C@@H](C)C(=O)N[C@@H]([C@@H](C)O)C(=O)N1)[C@@H](C)O)C(C)C)C(=O)N[C@@H](CC(C)C)C(=O)N1CCC[C@H]1C(=O)N1CCC[C@H]1C(=O)N[C@H](C(=O)N[C@@H](CCCNC(=N)N)C(=O)N[C@H](C(=O)NCC(=O)N[C@@H](CO)C(=O)N[C@@H](CC(N)=O)C(=O)N[C@H](C(=O)N[C@@H](Cc1ccc(O)cc1)C(N)=O)[C@@H](C)O)C(C)C)[C@@H](C)O [Peptide 25, K(γE-C18diacid)[CNTATC]ATQRLANFLVHSSNN(αMePhe)GPILPPTRVGSNTY-amide] (H-K([γGlu-C18 diacid])CNTATCATQRLANFLVHSSNN[αMeF]GPILPPTRVGSNTY-NH2; disulfide 2-7; N-terminus assumed) |
| 7 | increases the fibril-forming tendency | CC[C@H](C)[C@H](NC(=O)[C@@H]1CCCN1C(=O)CNC(=O)[C@H](Cc1ccccc1)NC(=O)[C@H](CC(N)=O)NC(=O)[C@H](CC(N)=O)NC(=O)[C@H](CO)NC(=O)[C@H](CO)NC(=O)[C@H](Cc1c[nH]cn1)NC(=O)[C@@H](NC(=O)[C@H](CC(C)C)NC(=O)[C@H](Cc1ccccc1)NC(=O)[C@H](CC(N)=O)NC(=O)[C@H](C)NC(=O)[C@H](CC(C)C)NC(=O)[C@H](CCCNC(=N)N)NC(=O)[C@H](CCC(N)=O)NC(=O)[C@@H](NC(=O)[C@H](C)NC(=O)[C@@H]1CSSC[C@H](NC(=O)[C@@H](N)CCCCNC(=O)CC[C@H](NC(=O)CC[C@H](NC(=O)CCCCCCCCCCCCCCCCC(=O)O)C(=O)O)C(=O)O)C(=O)N[C@@H](CC(N)=O)C(=O)N[C@@H]([C@@H](C)O)C(=O)N[C@@H](C)C(=O)N[C@@H]([C@@H](C)O)C(=O)N1)[C@@H](C)O)C(C)C)C(=O)N[C@@H](CC(C)C)C(=O)N1CCC[C@H]1C(=O)N1CCC[C@H]1C(=O)N[C@H](C(=O)N[C@@H](CC(N)=O)C(=O)N[C@H](C(=O)NCC(=O)N[C@@H](CO)C(=O)N[C@@H](CC(N)=O)C(=O)N[C@H](C(=O)N[C@@H](Cc1ccc(O)cc1)C(N)=O)[C@@H](C)O)C(C)C)[C@@H](C)O [Peptide 5] (H-K([γGlu-γGlu-C18 diacid])CNTATCATQRLANFLVHSSNNFGPILPPTNVGSNTY-NH2; disulfide 2-7; N-terminus assumed) |
